Results reported in ChEMBL document CHEMBL3414508, “A few atoms make the difference: synthetic, CD, NMR and computational studies on antiviral and antibacterial activities of glycopeptide antibiotic aglycon derivatives” (Eur J Med Chem, 2015).
≈ marks a conversion by molar mass, not a printed value.

Experiments:
Type in all cases: functional
Bacillus spizizenii = assay: Antibacterial activity against Bacillus subtilis ATCC 6633 by broth microdilution method
Staphylococcus aureus [1] = assay: Antibacterial activity against methicillin-sensitive Staphylococcus aureus ATCC 29213 by broth microdilution method
Staphylococcus aureus [2] = assay: Antibacterial activity against methicillin-resistant Staphylococcus aureus ATCC 33591 by broth microdilution method
[3] = tested on: Staphylococcus epidermidis; assay: Antibacterial activity against Staphylococcus epidermidis expressing mecA by broth microdilution method
[4] = tested on: Staphylococcus epidermidis; assay: Antibacterial activity against biofilm producing Staphylococcus epidermidis ATCC 35984 by broth microdilution method
Enterococcus faecalis [5] = assay: Antibacterial activity against Enterococcus faecalis ATCC 29212 by broth microdilution method
Enterococcus faecalis [6] = assay: Antibacterial activity against VanA+ Enterococcus faecalis 15376 by broth microdilution method
Enterococcus faecalis [7] = assay: Antibacterial activity against VanB+ Enterococcus faecalis ATCC 51299 by broth microdilution method

**Q.** For COC(=O)[C@H]1NC(=O)[C@H]2NC(=O)[C@H](NC(=O)[C@@H]3NC(=O)[C@H]4NC(=O)[C@@H](Cc5ccc(c(Cl)c5)Oc5cc3cc(c5O)Oc3ccc(cc3Cl)[C@H]2O[C@@H]2O[C@H](CO)[C@@H](O)[C@H](O)[C@H]2NC(C)=O)NC(=O)[C@H](N)c2ccc(O)c(c2)Oc2cc(O)cc4c2)c2ccc(O)c(c2)-c2c(O)cc(O)cc21, which MIC (Bacillus spizizenii) is on record?
**A.** 0.5 µg/mL (≈ 0.353 µM)

**Q.** What about the MIC (Staphylococcus aureus [1]) of the same compound?
**A.** 0.5 µg/mL (≈ 0.353 µM)

**Q.** What about the MIC (Staphylococcus aureus [2]) of the same compound?
**A.** 1 µg/mL (≈ 0.706 µM)

**Q.** And the MIC [3]?
**A.** 0.5 µg/mL (≈ 0.353 µM)

**Q.** What about the MIC [4] of the same compound?
**A.** 0.5 µg/mL (≈ 0.353 µM)

**Q.** What about the MIC (Enterococcus faecalis [5]) of the same compound?
**A.** 2 µg/mL (≈ 1.41 µM)

**Q.** And the MIC (Enterococcus faecalis [6])?
**A.** 0.5 µg/mL (≈ 0.353 µM)

**Q.** And the MIC (Enterococcus faecalis [7])?
**A.** 1 µg/mL (≈ 0.706 µM)

**Q.** COC(=O)[C@H]1NC(=O)[C@H]2NC(=O)[C@H](NC(=O)[C@@H]3NC(=O)[C@H]4NC(=O)[C@@H](Cc5ccc(c(Cl)c5)Oc5cc3cc(c5O)Oc3ccc(cc3Cl)[C@H]2O[C@@H]2O[C@H](CO)[C@@H](O)[C@H](O)[C@H]2NC(C)=O)NC(=O)[C@H](Nc2c(OC)c(=O)c2=O)c2ccc(O)c(c2)Oc2cc(O)cc4c2)c2ccc(O)c(c2)-c2c(O)cc(O)cc21 was tested. Which MIC (Bacillus spizizenii) did it give?
**A.** 8 µg/mL (≈ 5.24 µM)

**Q.** What about the MIC (Staphylococcus aureus [1]) of the same compound?
**A.** 2 µg/mL (≈ 1.31 µM)

**Q.** And the MIC (Staphylococcus aureus [2])?
**A.** 8 µg/mL (≈ 5.24 µM)

**Q.** And the MIC [3]?
**A.** 8 µg/mL (≈ 5.24 µM)

**Q.** And the MIC [4]?
**A.** 4 µg/mL (≈ 2.62 µM)

**Q.** And the MIC (Enterococcus faecalis [5])?
**A.** 2 µg/mL (≈ 1.31 µM)

**Q.** What about the MIC (Enterococcus faecalis [6]) of the same compound?
**A.** 0.5 µg/mL (≈ 0.328 µM)

**Q.** And the MIC (Enterococcus faecalis [7])?
**A.** 4 µg/mL (≈ 2.62 µM)

**Q.** Which MIC (Bacillus spizizenii) does the source give for COC(=O)[C@H]1NC(=O)[C@H]2NC(=O)[C@H](NC(=O)[C@@H]3NC(=O)[C@H]4NC(=O)[C@@H](Cc5ccc(c(Cl)c5)Oc5cc3cc(c5O)Oc3ccc(cc3Cl)[C@H]2O[C@@H]2O[C@H](CO)[C@@H](O)[C@H](O)[C@H]2NC(C)=O)NC(=O)[C@H](Nc2c(NCc3ccc(-c5ccccc5)cc3)c(=O)c2=O)c2ccc(O)c(c2)Oc2cc(O)cc4c2)c2ccc(O)c(c2)-c2c(O)cc(O)cc21 here?
**A.** 8 µg/mL (≈ 4.77 µM)

**Q.** And the MIC (Staphylococcus aureus [1])?
**A.** 2 µg/mL (≈ 1.19 µM)

**Q.** What about the MIC (Staphylococcus aureus [2]) of the same compound?
**A.** 0.5 µg/mL (≈ 0.298 µM)

**Q.** And the MIC [3]?
**A.** 0.5 µg/mL (≈ 0.298 µM)

**Q.** What about the MIC [4] of the same compound?
**A.** 0.5 µg/mL (≈ 0.298 µM)

**Q.** What about the MIC (Enterococcus faecalis [5]) of the same compound?
**A.** 0.5 µg/mL (≈ 0.298 µM)

**Q.** What about the MIC (Enterococcus faecalis [6]) of the same compound?
**A.** 0.5 µg/mL (≈ 0.298 µM)

**Q.** What about the MIC (Enterococcus faecalis [7]) of the same compound?
**A.** 0.5 µg/mL (≈ 0.298 µM)

**Q.** Which results are given for COc1c(N[C@H]2C(=O)N[C@@H]3Cc4ccc(c(Cl)c4)Oc4cc5cc(c4O)Oc4ccc(cc4Cl)[C@@H](O)[C@@H]4NC(=O)[C@H](NC(=O)[C@@H]5NC(=O)[C@@H](NC3=O)c3cc(O)cc(c3)Oc3cc2ccc3O)c2ccc(O)c(c2)-c2c(O)cc(O)cc2[C@@H](C(=O)O)NC4=O)c(=O)c1=O?
**A.** MIC (Bacillus spizizenii): 16 µg/mL (≈ 12.2 µM); MIC (Staphylococcus aureus [1]): 1 µg/mL (≈ 0.764 µM); MIC (Staphylococcus aureus [2]): 2 µg/mL (≈ 1.53 µM); MIC [3]: 2 µg/mL (≈ 1.53 µM); MIC [4]: 2 µg/mL (≈ 1.53 µM); MIC (Enterococcus faecalis [5]): 4 µg/mL (≈ 3.06 µM); MIC (Enterococcus faecalis [6]): 2 µg/mL (≈ 1.53 µM); MIC (Enterococcus faecalis [7]): 8 µg/mL (≈ 6.11 µM)

**Q.** Which results are given for O=C1N[C@H]2C(=O)N[C@H]3C(=O)N[C@H](C(=O)N[C@H](C(=O)O)c4cc(O)cc(O)c4-c4cc3ccc4O)[C@H](O)c3ccc(c(Cl)c3)Oc3cc2cc(c3O)Oc2ccc(cc2Cl)C[C@H]2NC(=O)[C@H](Nc3c(NCc4ccc(-c5ccccc5)cc4)c(=O)c3=O)c3ccc(O)c(c3)Oc3cc(O)cc(c3)[C@@H]1NC2=O?
**A.** MIC (Bacillus spizizenii): 8 µg/mL (≈ 5.48 µM); MIC (Staphylococcus aureus [1]): 2 µg/mL (≈ 1.37 µM); MIC (Staphylococcus aureus [2]): 2 µg/mL (≈ 1.37 µM); MIC [3]: 2 µg/mL (≈ 1.37 µM); MIC [4]: 0.5 µg/mL (≈ 0.342 µM); MIC (Enterococcus faecalis [5]): 1 µg/mL (≈ 0.685 µM); MIC (Enterococcus faecalis [6]): 1 µg/mL (≈ 0.685 µM); MIC (Enterococcus faecalis [7]): 8 µg/mL (≈ 5.48 µM)

**Q.** Which MIC (Bacillus spizizenii) does the source give for COC(=O)[C@H]1NC(=O)[C@H]2NC(=O)[C@H](NC(=O)[C@@H]3NC(=O)[C@H]4NC(=O)[C@@H](Cc5ccc(c(Cl)c5)Oc5cc3cc(c5O)Oc3ccc(cc3Cl)[C@H]2O)NC(=O)[C@H](Nc2c(NCc3ccc(-c5ccccc5)cc3)c(=O)c2=O)c2ccc(O)c(c2)Oc2cc(O)cc4c2)c2ccc(O)c(c2)-c2c(O)cc(O)cc21 here?
**A.** 256 µg/mL (≈ 174 µM)

**Q.** What about the MIC (Staphylococcus aureus [1]) of the same compound?
**A.** 128 µg/mL (≈ 86.8 µM)

**Q.** And the MIC (Staphylococcus aureus [2])?
**A.** 256 µg/mL (≈ 174 µM)

**Q.** And the MIC [3]?
**A.** 32 µg/mL (≈ 21.7 µM)

**Q.** And the MIC [4]?
**A.** 256 µg/mL (≈ 174 µM)

**Q.** What about the MIC (Enterococcus faecalis [5]) of the same compound?
**A.** 64 µg/mL (≈ 43.4 µM)

**Q.** And the MIC (Enterococcus faecalis [6])?
**A.** 128 µg/mL (≈ 86.8 µM)

**Q.** And the MIC (Enterococcus faecalis [7])?
**A.** 256 µg/mL (≈ 174 µM)

**Q.** What does the source list for COC(=O)[C@H]1NC(=O)[C@H]2NC(=O)[C@H](NC(=O)[C@@H]3NC(=O)[C@H]4NC(=O)[C@@H](Cc5ccc(cc5)Oc5cc3cc(c5O)Oc3ccc(cc3)[C@H]2O)NC(=O)[C@H](Nc2c(NCc3ccc(-c5ccccc5)cc3)c(=O)c2=O)c2ccc(O)c(c2)Oc2cc(O)cc4c2)c2ccc(O)c(c2)-c2c(O)cc(O)cc21?
**A.** MIC (Bacillus spizizenii): 16 µg/mL (≈ 11.4 µM); MIC (Staphylococcus aureus [1]): 8 µg/mL (≈ 5.69 µM); MIC (Staphylococcus aureus [2]): 32 µg/mL (≈ 22.8 µM); MIC [3]: 8 µg/mL (≈ 5.69 µM); MIC [4]: 32 µg/mL (≈ 22.8 µM); MIC (Enterococcus faecalis [5]): 4 µg/mL (≈ 2.85 µM); MIC (Enterococcus faecalis [6]): 16 µg/mL (≈ 11.4 µM); MIC (Enterococcus faecalis [7]): 4 µg/mL (≈ 2.85 µM)

**Q.** For Cc1c(O)cc2cc1Oc1cc(ccc1O)[C@@H](N)C(=O)N[C@H]1C(=O)N[C@@H]2C(=O)N[C@H]2C(=O)N[C@H]3C(=O)N[C@H](C(=O)N[C@@H](C(=O)O)c4cc(O)cc(O[C@H]5O[C@H](CO)[C@@H](O)[C@H](O)[C@@H]5O)c4-c4cc3ccc4O)[C@H](O[C@H]3C[C@@H](N)[C@@H](O)[C@H](C)O3)c3ccc(cc3)Oc3cc2cc(c3O[C@H]2O[C@@H](CO[C@H]3O[C@H](C)[C@@H](O)[C@H](O)[C@@H]3O)[C@H](O)[C@@H](O)[C@@H]2O[C@H]2O[C@H](CO)[C@@H](O)[C@H](O)[C@@H]2O[C@H]2O[C@H](CO)[C@@H](O)[C@@H]2O)Oc2ccc(cc2)[C@H]1O [RISTOCETIN], which MIC (Bacillus spizizenii) is on record?
**A.** 16 µg/mL (≈ 7.79 µM)

**Q.** What about the MIC (Staphylococcus aureus [1]) of the same compound?
**A.** 128 µg/mL (≈ 62.3 µM)

**Q.** What about the MIC (Staphylococcus aureus [2]) of the same compound?
**A.** 32 µg/mL (≈ 15.6 µM)

**Q.** What about the MIC [3] of the same compound?
**A.** 128 µg/mL (≈ 62.3 µM)

**Q.** What about the MIC [4] of the same compound?
**A.** 2 µg/mL (≈ 0.974 µM)

**Q.** What about the MIC (Enterococcus faecalis [5]) of the same compound?
**A.** 4 µg/mL (≈ 1.95 µM)

**Q.** What about the MIC (Enterococcus faecalis [6]) of the same compound?
**A.** 16 µg/mL (≈ 7.79 µM)

**Q.** And the MIC (Enterococcus faecalis [7])?
**A.** 256 µg/mL (≈ 125 µM)
